According to ChEMBL document CHEMBL1909046, “DrugMatrix in vitro pharmacology data”:

Experiments:
[1] = DRUGMATRIX: GABAA, Flunitrazepam, Central radioligand binding (ligand: [3H] Flunitrazepam); type: cell membranes, Rattus norvegicus, Wistar, Brain, Membrane; settings: Not Active = under 50% inhibition at 10 µM
[2] = target: T1, Alpha-2A adrenergic receptor (Homo sapiens, UniProt P08913); type: cell membranes, Sf9, Membrane; settings: sf9; also: in other assays of this panel Not Active means under 50% inhibition at 10 µM
T1 sequence (P08913 whole entry): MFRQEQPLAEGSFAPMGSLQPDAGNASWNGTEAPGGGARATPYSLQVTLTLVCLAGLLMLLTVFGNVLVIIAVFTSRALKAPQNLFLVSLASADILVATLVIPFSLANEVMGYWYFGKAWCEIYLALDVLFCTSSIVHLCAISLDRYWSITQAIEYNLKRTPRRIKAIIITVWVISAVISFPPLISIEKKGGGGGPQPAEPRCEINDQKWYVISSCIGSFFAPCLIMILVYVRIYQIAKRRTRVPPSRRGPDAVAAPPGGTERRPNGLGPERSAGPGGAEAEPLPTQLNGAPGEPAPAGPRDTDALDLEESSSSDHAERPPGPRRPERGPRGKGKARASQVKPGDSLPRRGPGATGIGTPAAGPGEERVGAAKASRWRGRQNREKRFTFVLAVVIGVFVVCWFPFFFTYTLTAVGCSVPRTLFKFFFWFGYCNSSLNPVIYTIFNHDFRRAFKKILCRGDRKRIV

[3] = target: Beta-1 adrenergic receptor (Homo sapiens, UniProt P08588); experiment: DRUGMATRIX: Adrenergic beta1 radioligand binding (ligand: [125I] Cyanopindolol); type: cell membranes, CHO-K1, Membrane; settings: cho-k1; Not Active = under 50% inhibition at 10 µM
Adenosine receptor A1 = target: T2, Adenosine receptor A1 (Homo sapiens, UniProt P30542); type: cell membranes, CHO, Membrane; settings: cho;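 also: radioligand binding assay at the adenosine A1 receptor, with DPCPX serving as the labelled ligand; in other assays of this panel Not Active means under 50% inhibition at 10 µM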
T2 sequence (P30542 whole entry): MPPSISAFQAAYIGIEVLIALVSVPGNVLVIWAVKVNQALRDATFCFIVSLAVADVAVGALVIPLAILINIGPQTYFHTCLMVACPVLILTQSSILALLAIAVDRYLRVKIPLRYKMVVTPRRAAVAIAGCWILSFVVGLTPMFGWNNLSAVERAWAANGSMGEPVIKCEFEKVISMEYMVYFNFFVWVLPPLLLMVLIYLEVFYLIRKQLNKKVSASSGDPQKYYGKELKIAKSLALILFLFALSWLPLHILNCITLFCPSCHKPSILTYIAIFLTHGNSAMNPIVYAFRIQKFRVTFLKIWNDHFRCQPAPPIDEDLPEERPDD

Insulin receptor = Insulin receptor (Rattus norvegicus, UniProt P15127); type: cell membranes, Wistar, Liver, Membrane; also: in other assays of this panel Not Active means under 50% inhibition at 10 µM
[4] = target: T3, Alpha-2C adrenergic receptor (Homo sapiens, UniProt P18825); experiment: DRUGMATRIX: Adrenergic Alpha-2C radioligand binding (ligand: [3H] MK-912); type: cell membranes, Sf9, Membrane; settings: sf9
T3 sequence (P18825 whole entry): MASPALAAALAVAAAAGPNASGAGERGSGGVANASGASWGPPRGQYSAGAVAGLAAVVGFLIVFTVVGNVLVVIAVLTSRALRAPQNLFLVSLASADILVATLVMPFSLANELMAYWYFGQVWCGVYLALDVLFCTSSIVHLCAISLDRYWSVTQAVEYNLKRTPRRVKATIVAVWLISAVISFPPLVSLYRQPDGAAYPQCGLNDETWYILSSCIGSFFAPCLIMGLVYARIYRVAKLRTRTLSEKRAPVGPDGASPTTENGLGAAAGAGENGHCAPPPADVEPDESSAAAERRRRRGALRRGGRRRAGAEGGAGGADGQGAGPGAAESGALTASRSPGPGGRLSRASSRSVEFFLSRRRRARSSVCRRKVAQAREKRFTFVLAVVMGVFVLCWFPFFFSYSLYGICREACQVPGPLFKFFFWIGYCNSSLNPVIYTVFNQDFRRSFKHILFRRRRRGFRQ

[5] = target: Receptor tyrosine-protein kinase erbB-2 (Homo sapiens, UniProt P04626); experiment: biochemical; type: cell-based, Insect cells; settings: insect cells;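 also: inhibition of HER2 kinase enzyme activity, measured with Poly(Glu:Tyr) as the phosphorylation substrate; in other assays of this panel Not Active means under 50% inhibition at 10 µM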
[6] = target: T4, Neuropeptide Y receptor type 2 (Homo sapiens, UniProt P49146); type: cell membranes, Membrane; settings: kan-ts; also: in other assays of this panel Not Active means under 50% inhibition at 10 µM
T4 sequence (P49146 whole entry): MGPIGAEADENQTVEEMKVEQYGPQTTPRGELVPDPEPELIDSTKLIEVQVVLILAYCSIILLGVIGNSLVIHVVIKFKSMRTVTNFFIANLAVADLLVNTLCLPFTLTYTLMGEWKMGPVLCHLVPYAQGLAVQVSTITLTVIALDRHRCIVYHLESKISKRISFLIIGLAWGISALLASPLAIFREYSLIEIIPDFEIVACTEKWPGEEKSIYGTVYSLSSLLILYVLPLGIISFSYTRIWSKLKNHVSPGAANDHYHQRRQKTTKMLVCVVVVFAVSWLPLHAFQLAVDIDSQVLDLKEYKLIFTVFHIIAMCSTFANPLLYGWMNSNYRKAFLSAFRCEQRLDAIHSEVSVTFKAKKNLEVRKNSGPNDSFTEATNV

[7] = DRUGMATRIX: Calcium Channel Type L, Phenylalkylamine radioligand binding (ligand: [3H] (-)-Desmethoxyverapamil (D-888)); type: cell membranes, Rattus norvegicus, Wistar, Brain, Membrane; settings: Not Active = under 50% inhibition at 10 µM
[8] = target: T5, Type-2 angiotensin II receptor (Homo sapiens, UniProt P50052); type: cell-based; settings: cho-k1; also: in other assays of this panel Not Active means under 50% inhibition at 10 µM
T5 sequence (P50052 whole entry): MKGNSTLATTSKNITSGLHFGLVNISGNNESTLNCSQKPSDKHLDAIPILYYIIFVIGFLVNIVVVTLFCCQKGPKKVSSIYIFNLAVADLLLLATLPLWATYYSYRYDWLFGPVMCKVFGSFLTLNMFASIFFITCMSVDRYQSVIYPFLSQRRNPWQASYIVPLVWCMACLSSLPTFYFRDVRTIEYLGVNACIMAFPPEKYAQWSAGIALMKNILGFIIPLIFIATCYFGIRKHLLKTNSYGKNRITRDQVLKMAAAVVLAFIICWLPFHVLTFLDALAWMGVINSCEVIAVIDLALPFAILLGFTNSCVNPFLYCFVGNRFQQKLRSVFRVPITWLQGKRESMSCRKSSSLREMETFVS

[9] = target: Voltage-gated inwardly rectifying potassium channel KCNH2 (Homo sapiens, UniProt Q12809); settings: hek293; also: in other assays of this panel Not Active means under 50% inhibition at 10 µM
[10] = target: 5-hydroxytryptamine receptor 1B (Rattus norvegicus, UniProt P28564); type: cell membranes, Wistar, Cerebral cortex, Membrane; also: in other assays of this panel Not Active means under 50% inhibition at 10 µM
Chain of 5-hydroxytryptamine receptor 1B (P28564 whole entry): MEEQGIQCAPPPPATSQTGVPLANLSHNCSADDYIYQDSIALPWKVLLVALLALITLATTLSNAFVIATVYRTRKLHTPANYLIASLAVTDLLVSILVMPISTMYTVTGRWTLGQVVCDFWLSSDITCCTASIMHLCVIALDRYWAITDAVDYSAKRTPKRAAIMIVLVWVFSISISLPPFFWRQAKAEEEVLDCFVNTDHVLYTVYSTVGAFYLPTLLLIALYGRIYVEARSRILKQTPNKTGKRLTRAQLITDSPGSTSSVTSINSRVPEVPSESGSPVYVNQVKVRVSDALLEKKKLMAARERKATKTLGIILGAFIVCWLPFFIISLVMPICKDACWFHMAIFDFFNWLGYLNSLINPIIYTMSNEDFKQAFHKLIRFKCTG

Chain of Receptor tyrosine-protein kinase erbB-2 (P04626 whole entry): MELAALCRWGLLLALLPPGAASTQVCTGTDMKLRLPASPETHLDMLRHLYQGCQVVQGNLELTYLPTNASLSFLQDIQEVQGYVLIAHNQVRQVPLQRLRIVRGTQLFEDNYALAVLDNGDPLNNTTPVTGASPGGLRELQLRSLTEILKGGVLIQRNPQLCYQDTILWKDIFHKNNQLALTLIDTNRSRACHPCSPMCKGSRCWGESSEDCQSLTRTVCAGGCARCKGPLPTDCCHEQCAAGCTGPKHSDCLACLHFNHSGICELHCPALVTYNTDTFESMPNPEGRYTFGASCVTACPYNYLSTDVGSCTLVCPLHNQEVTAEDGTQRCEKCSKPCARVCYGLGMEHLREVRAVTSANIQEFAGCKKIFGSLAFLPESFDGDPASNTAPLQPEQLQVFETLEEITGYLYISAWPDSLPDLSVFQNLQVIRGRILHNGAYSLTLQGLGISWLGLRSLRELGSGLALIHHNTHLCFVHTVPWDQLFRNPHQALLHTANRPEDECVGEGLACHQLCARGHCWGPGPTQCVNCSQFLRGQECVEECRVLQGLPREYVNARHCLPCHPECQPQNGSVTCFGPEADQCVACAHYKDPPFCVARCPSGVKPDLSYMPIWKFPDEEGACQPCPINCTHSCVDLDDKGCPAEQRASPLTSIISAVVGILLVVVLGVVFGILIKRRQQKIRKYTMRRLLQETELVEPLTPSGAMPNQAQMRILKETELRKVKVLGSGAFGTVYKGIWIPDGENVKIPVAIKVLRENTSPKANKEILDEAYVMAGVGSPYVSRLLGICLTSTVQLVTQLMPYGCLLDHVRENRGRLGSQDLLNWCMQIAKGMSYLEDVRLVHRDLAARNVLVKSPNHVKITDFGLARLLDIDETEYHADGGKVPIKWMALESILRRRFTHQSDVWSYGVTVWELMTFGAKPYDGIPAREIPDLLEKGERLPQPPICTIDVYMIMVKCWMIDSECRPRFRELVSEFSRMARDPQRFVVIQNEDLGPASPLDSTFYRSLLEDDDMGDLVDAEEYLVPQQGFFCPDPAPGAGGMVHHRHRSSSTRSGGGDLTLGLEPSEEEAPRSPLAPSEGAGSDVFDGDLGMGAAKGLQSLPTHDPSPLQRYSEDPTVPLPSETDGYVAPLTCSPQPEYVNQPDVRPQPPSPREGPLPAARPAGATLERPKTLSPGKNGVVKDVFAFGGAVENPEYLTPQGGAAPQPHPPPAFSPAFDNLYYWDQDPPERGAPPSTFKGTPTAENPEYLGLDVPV
Chain of Insulin receptor (P15127 27-759 limits assumed): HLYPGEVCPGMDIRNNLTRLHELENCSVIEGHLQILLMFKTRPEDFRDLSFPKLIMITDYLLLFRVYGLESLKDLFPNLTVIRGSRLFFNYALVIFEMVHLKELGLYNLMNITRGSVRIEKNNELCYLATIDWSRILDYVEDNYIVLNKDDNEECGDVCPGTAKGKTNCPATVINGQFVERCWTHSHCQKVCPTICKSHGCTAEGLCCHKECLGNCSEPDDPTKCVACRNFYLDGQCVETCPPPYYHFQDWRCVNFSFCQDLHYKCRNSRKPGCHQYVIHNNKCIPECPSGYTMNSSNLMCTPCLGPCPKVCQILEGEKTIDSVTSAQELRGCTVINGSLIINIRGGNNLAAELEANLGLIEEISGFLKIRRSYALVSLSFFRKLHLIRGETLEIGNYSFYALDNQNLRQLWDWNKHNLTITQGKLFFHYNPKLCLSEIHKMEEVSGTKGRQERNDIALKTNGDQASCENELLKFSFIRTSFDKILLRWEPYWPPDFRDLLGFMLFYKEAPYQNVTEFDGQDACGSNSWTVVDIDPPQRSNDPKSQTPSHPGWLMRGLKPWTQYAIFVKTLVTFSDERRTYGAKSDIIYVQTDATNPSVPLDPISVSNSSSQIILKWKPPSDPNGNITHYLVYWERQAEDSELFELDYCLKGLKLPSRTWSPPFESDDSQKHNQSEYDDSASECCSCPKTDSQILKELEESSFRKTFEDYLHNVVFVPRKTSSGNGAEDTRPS
Chain of Insulin receptor (P15127 764-1383 limits assumed): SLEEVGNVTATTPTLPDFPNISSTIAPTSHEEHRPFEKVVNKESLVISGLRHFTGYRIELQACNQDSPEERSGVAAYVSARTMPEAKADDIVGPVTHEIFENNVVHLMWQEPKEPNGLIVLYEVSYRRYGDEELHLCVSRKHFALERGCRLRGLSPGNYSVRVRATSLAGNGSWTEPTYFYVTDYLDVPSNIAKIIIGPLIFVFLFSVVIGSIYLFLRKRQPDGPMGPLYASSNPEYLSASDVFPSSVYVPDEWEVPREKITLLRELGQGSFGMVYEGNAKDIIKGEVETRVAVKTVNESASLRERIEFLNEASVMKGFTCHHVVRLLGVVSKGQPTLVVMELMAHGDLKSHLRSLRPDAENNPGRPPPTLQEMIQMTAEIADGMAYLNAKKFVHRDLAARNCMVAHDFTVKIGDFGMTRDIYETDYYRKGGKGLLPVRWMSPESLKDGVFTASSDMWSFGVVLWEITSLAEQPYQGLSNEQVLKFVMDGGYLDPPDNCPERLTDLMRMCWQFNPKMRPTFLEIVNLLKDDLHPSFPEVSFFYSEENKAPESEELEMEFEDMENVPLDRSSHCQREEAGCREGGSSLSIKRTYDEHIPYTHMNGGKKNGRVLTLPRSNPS
Chain of Beta-1 adrenergic receptor (P08588 whole entry): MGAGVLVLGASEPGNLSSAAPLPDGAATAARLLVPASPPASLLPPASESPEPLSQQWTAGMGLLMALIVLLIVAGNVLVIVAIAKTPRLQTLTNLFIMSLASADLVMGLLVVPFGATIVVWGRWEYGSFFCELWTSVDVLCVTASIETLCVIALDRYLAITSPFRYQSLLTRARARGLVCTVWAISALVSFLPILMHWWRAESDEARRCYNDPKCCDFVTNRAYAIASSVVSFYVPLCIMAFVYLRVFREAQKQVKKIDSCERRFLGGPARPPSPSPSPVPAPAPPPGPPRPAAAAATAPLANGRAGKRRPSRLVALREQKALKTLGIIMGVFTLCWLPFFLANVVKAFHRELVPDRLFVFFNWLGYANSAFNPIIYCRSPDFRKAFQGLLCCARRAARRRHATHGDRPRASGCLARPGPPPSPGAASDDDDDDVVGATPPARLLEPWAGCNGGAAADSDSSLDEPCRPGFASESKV
Chain of Voltage-gated inwardly rectifying potassium channel KCNH2 (Q12809 whole entry): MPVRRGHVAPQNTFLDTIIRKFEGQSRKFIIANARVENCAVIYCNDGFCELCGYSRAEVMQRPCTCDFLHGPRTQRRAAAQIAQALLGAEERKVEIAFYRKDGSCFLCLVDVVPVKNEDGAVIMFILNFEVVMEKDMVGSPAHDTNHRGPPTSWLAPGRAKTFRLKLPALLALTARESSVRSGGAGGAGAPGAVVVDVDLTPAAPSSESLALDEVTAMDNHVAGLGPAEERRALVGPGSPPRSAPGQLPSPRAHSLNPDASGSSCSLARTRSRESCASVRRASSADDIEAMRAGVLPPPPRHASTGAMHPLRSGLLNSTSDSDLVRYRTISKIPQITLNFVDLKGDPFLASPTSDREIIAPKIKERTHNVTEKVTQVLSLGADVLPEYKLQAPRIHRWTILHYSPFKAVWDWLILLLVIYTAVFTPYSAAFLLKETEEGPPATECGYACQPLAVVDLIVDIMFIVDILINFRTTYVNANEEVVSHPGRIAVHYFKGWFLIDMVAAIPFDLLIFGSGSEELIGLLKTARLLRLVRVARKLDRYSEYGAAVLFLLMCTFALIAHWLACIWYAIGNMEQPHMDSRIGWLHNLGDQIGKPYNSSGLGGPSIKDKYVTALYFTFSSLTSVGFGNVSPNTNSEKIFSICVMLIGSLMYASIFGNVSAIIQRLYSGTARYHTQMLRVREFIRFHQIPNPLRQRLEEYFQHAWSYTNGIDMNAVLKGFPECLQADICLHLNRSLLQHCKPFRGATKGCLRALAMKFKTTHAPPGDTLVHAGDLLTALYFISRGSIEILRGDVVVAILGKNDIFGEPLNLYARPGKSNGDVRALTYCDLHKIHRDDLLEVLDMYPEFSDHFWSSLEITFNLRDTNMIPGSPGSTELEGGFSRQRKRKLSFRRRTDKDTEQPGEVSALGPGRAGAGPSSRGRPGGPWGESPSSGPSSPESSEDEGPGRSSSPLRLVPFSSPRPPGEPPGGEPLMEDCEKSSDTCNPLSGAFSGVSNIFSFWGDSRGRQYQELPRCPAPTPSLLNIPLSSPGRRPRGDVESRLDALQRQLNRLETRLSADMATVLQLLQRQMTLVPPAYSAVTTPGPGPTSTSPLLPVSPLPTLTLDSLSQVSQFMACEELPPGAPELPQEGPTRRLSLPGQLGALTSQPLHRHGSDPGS

O=C1CCc2cc(OCCCCc3nnnn3C3CCCCC3)ccc2N1 [CILOSTAZOL]
Not Active: IC50 [1] | Ki [1] | IC50 [2] | IC50 [3] | IC50 (Adenosine receptor A1) | IC50 (Insulin receptor) | IC50 [4] | IC50 [5] | IC50 [6] | IC50 [7] | Ki [7] | IC50 [8] | IC50 [9] | Ki [9] | IC50 [10]

C[C@]12CCC(=O)C=C1CC[C@@H]1[C@@H]2C(=O)C[C@@]2(C)[C@H]1CC[C@]2(O)C(=O)CO [CORTISONE]
Not Active: IC50 [1] | Ki [1] | IC50 [2] | IC50 [3] | IC50 (Adenosine receptor A1) | IC50 (Insulin receptor) | IC50 [4] | IC50 [5] | IC50 [6] | IC50 [7] | Ki [7] | IC50 [8] | IC50 [9] | Ki [9] | IC50 [10]

Cc1ccccc1N1CCN(CCc2nnc3n2CCCC3)CC1 [DAPIPRAZOLE]
Not Active: IC50 [1] | Ki [1] | IC50 [2] | IC50 [3] | IC50 (Adenosine receptor A1) | IC50 (Insulin receptor) | IC50 [4] | IC50 [5] | IC50 [6] | IC50 [7] | Ki [7] | IC50 [8] | IC50 [9] | Ki [9] | IC50 [10]

CC1=Nc2ccc(Cl)cc2S(=O)(=O)N1 [DIAZOXIDE]
Not Active: IC50 [1] | Ki [1] | IC50 [2] | IC50 [3] | IC50 (Adenosine receptor A1) | IC50 (Insulin receptor) | IC50 [4] | IC50 [5] | IC50 [6] | IC50 [7] | Ki [7] | IC50 [8] | IC50 [9] | Ki [9] | IC50 [10]

CC(=O)OCC(=O)[C@@]1(OC(C)=O)[C@@H](C)C[C@H]2[C@@H]3C[C@H](F)C4=CC(=O)C=C[C@]4(C)[C@@]3(F)[C@@H](O)C[C@@]21C [DIFLORASONE DIACETATE]
Not Active: IC50 [1] | Ki [1] | IC50 [2] | IC50 [3] | IC50 (Adenosine receptor A1) | IC50 (Insulin receptor) | IC50 [4] | IC50 [5] | IC50 [6] | IC50 [7] | Ki [7] | IC50 [8] | IC50 [9] | Ki [9] | IC50 [10]

CCc1ccc(C(=O)C(C)CN2CCCCC2)cc1 (stereo not given) [EPERISONE]
Not Active: IC50 [1] | Ki [1] | IC50 [2] | IC50 [3] | IC50 (Adenosine receptor A1) | IC50 (Insulin receptor) | IC50 [4] | IC50 [5] | IC50 [6] | IC50 [7] | Ki [7] | IC50 [8] | IC50 [9] | Ki [9] | IC50 [10]

C=C1CC[C@H](O)C/C1=C/C=C1\CCC[C@]2(C)[C@@H]([C@H](C)/C=C/[C@H](C)C(C)C)CC[C@@H]12 [ERGOCALCIFEROL]
Not Active: IC50 [1] | Ki [1] | IC50 [2] | IC50 [3] | IC50 (Adenosine receptor A1) | IC50 (Insulin receptor) | IC50 [4] | IC50 [5] | IC50 [6] | IC50 [7] | Ki [7] | IC50 [8] | IC50 [9] | Ki [9] | IC50 [10]
